Measurements taken from publication PMC10178848, “Modulating fast skeletal muscle contraction protects skeletal muscle in animal models of Duchenne muscular dystrophy” (The Journal of Clinical Investigation, 2023).

Tested on: GRMD plasma proteins
Type: in vivo, dog
Details: EDG-5506 treatment to GRMD baseline

## O=c1ccc(-c2cnc(OCC(F)(F)F)nc2)nn1Cc1cncc(F)c1 [EDG-5506]
Decreased in GRMD
  Proteasome activator complex subunit 3 (PSME3): Change from GRMD Baseline (fraction): 0.0977 fraction
  Protein S100-A4 (S100A4): Change from GRMD Baseline (fraction): 0.1824 fraction
  Protein amnionless (AMN): Change from GRMD Baseline (fraction): 0.1425 fraction
  Protein jagged-1 (JAG1): Change from GRMD Baseline (fraction): 0.2072 fraction
  Retinol-binding protein 4 (RBP4): Change from GRMD Baseline (fraction): 0.0942 fraction
  Roundabout homolog 2 (ROBO2): Change from GRMD Baseline (fraction): 0.1874 fraction
  SLIT and NTRK-like protein 5 (SLITRK5): Change from GRMD Baseline (fraction): 0.1091 fraction
  SPARC (SPARC): Change from GRMD Baseline (fraction): 0.0605 fraction
  Sclerostin (SOST): Change from GRMD Baseline (fraction): 0.197 fraction
  Semaphorin-3E (SEMA3E): Change from GRMD Baseline (fraction): -0.0152 fraction
  Semaphorin-5A (SEMA5A): Change from GRMD Baseline (fraction): 0.0882 fraction
  Serum albumin (ALB): Change from GRMD Baseline (fraction): 0.068 fraction
  Sialic acid-binding Ig-like lectin 6 (SIGLEC6): Change from GRMD Baseline (fraction): 0.1345 fraction
  Stem cell growth factor-alpha (CLEC11A): Change from GRMD Baseline (fraction): -0.071 fraction
  T-lymphocyte surface antigen Ly-9 (LY9): Change from GRMD Baseline (fraction): 0.0785 fraction
  TGF-beta receptor type-2 (TGFBR2): Change from GRMD Baseline (fraction): -0.0644 fraction
  Tropomyosin alpha-1 chain (TPM1): Change from GRMD Baseline (fraction): 0.0152 fraction
  Tumor necrosis factor receptor superfamily member 10B (TNFRSF10B): Change from GRMD Baseline (fraction): 0.131 fraction
  Tumor necrosis factor-inducible gene 6 protein (TNFAIP6): Change from GRMD Baseline (fraction): 0.2046 fraction
  Wnt inhibitory factor 1 (WIF1): Change from GRMD Baseline (fraction): 0.0365 fraction
Increased in GRMD
  Activated Protein C (PROC): Change from GRMD Baseline (fraction): -0.0147 fraction
  Adiponectin (ADIPOQ): Change from GRMD Baseline (fraction): -0.1461 fraction
  Alanine aminotransferase 1 (GPT): Change from GRMD Baseline (fraction): -0.0729 fraction
  Alpha-2-antiplasmin (SERPINF2): Change from GRMD Baseline (fraction): -0.0328 fraction
  Apolipoprotein D (APOD): Change from GRMD Baseline (fraction): -0.0675 fraction
  Apolipoprotein L1 (APOL1): Change from GRMD Baseline (fraction): -0.1374 fraction
  Asialoglycoprotein receptor 1 (ASGR1): Change from GRMD Baseline (fraction): -0.009 fraction
  Bone morphogenetic protein 1 (BMP1): Change from GRMD Baseline (fraction): 0.0186 fraction
  Breast cancer anti-estrogen resistance protein 3 (BCAR3): Change from GRMD Baseline (fraction): -0.0831 fraction
  C5a anaphylatoxin (C5): Change from GRMD Baseline (fraction): 0.2048 fraction
  C-C motif chemokine 1 (CCL1): Change from GRMD Baseline (fraction): -0.0825 fraction
  C-C motif chemokine 3 (CCL3): Change from GRMD Baseline (fraction): -0.078 fraction
  C-X-C motif chemokine 5 (CXCL5): Change from GRMD Baseline (fraction): -0.0608 fraction
  CD63 antigen (CD63): Change from GRMD Baseline (fraction): -0.0803 fraction
  CD97 antigen (CD97): Change from GRMD Baseline (fraction): -0.1124 fraction
  CD109 antigen (CD109): Change from GRMD Baseline (fraction): -0.0257 fraction
  CD177 antigen (CD177): Change from GRMD Baseline (fraction): -0.1306 fraction
  Carbonic anhydrase 4 (CA4): Change from GRMD Baseline (fraction): -0.0922 fraction
  Caspase-3 (CASP3): Change from GRMD Baseline (fraction): -0.0323 fraction
  Cell adhesion molecule 3 (CADM3): Change from GRMD Baseline (fraction): -0.0647 fraction
  Change from GRMD Baseline (fraction): 1-phosphatidylinositol 4,5-bisphosphate phosphodiesterase gamma-1 (PLCG1): -0.0855 fraction
  Change from GRMD Baseline (fraction): 14-3-3 protein family (YWHAB,YWHAE,YWHAG,YWHAH,YWHAQ,YWHAZ,SFN): -0.1463 fraction
  Change from GRMD Baseline (fraction): 26S proteasome non-ATPase regulatory subunit 7 (PSMD7): 0.0373 fraction
  Change from GRMD Baseline (fraction): 40S ribosomal protein S7 (RPS7): -0.3231 fraction
  Change from GRMD Baseline (fraction): A disintegrin and metalloproteinase with thrombospondin motifs 5 (ADAMTS5): 0.004 fraction
  Change from GRMD Baseline (fraction): A disintegrin and metalloproteinase with thrombospondin motifs 15 (ADAMTS15): -0.0189 fraction
  Change from GRMD Baseline (fraction): AH receptor-interacting protein (AIP): -0.1069 fraction
  Change from GRMD Baseline (fraction): AMP Kinase (alpha2beta2gamma1) (PRKAA2 PRKAB2 PRKAG1): -0.3422 fraction
  Change from GRMD Baseline (fraction): ATP synthase subunit beta, mitochondrial (ATP5B): 0.3871 fraction
  Change from GRMD Baseline (fraction): ATP-dependent RNA helicase DDX19B (DDX19B): -0.2236 fraction
  Change from GRMD Baseline (fraction): Acidic leucine-rich nuclear phosphoprotein 32 family member B (ANP32B): -0.3439 fraction
  Change from GRMD Baseline (fraction): Activin receptor type-1B (ACVR1B): -0.0675 fraction
  Change from GRMD Baseline (fraction): Adenylate kinase isoenzyme 1 (AK1): -0.5663 fraction
  Change from GRMD Baseline (fraction): Adenylosuccinate lyase (ADSL): 0.1427 fraction
  Change from GRMD Baseline (fraction): Afamin (AFM): -0.1952 fraction
  Change from GRMD Baseline (fraction): Aflatoxin B1 aldehyde reductase member 2 (AKR7A2): -0.1733 fraction
  Change from GRMD Baseline (fraction): Alcohol dehydrogenase [NADP(+)] (AKR1A1): -0.2833 fraction
  Change from GRMD Baseline (fraction): Aminoacylase-1 (ACY1): -0.4238 fraction
  Change from GRMD Baseline (fraction): Amphoterin-induced protein 2 (AMIGO2): 0.0688 fraction
  Change from GRMD Baseline (fraction): Annexin A6 (ANXA6): -0.2759 fraction
  Change from GRMD Baseline (fraction): Anterior gradient protein 2 homolog (AGR2): -0.0848 fraction
  Change from GRMD Baseline (fraction): Apolipoprotein E (APOE): -0.1554 fraction
  Change from GRMD Baseline (fraction): Apolipoprotein E (isoform E3) (APOE): 0.0588 fraction
  Change from GRMD Baseline (fraction): Apolipoprotein E (isoform E4) (APOE): -0.0389 fraction
  Change from GRMD Baseline (fraction): Apoptosis regulator Bcl-2 (BCL2): -0.1414 fraction
  Change from GRMD Baseline (fraction): Artemin (ARTN): -0.0443 fraction
  Change from GRMD Baseline (fraction): Arylsulfatase B (ARSB): -0.0585 fraction
  Change from GRMD Baseline (fraction): B-cell receptor CD22 (CD22): -0.1198 fraction
  Change from GRMD Baseline (fraction): Baculoviral IAP repeat-containing protein 5 (BIRC5): -0.1027 fraction
  Change from GRMD Baseline (fraction): Basal Cell Adhesion Molecule (BCAM): -0.0829 fraction
  Change from GRMD Baseline (fraction): Bcl-2-like protein 1 (BCL2L1): -0.0786 fraction
  Change from GRMD Baseline (fraction): Bone sialoprotein 2 (IBSP): -0.0968 fraction
  Change from GRMD Baseline (fraction): C-C motif chemokine 13 (CCL13): -0.0908 fraction
  Change from GRMD Baseline (fraction): C-C motif chemokine 23 (CCL23): -0.0571 fraction
  Change from GRMD Baseline (fraction): CCAAT/enhancer-binding protein beta (CEBPB): -0.0589 fraction
  Change from GRMD Baseline (fraction): CD59 glycoprotein (CD59): -0.0497 fraction
  Change from GRMD Baseline (fraction): Calcineurin (PPP3CA PPP3R1): -0.2961 fraction
  Change from GRMD Baseline (fraction): Calcineurin subunit B type 1 (PPP3R1): -0.1572 fraction
  Change from GRMD Baseline (fraction): Calcium/calmodulin-dependent protein kinase type 1 (CAMK1): -0.1284 fraction
  Change from GRMD Baseline (fraction): Calcium/calmodulin-dependent protein kinase type 1D (CAMK1D): -0.0749 fraction
  Change from GRMD Baseline (fraction): Calcium/calmodulin-dependent protein kinase type II subunit alpha (CAMK2A): -0.4545 fraction
  Change from GRMD Baseline (fraction): Calcium/calmodulin-dependent protein kinase type II subunit beta (CAMK2B): -0.4519 fraction
  Change from GRMD Baseline (fraction): Calcium/calmodulin-dependent protein kinase type II subunit delta (CAMK2D): -0.3407 fraction
  Change from GRMD Baseline (fraction): Calpain I (CAPN1 CAPNS1): -0.011 fraction
  Change from GRMD Baseline (fraction): Calpastatin (CAST): -0.036 fraction
  Change from GRMD Baseline (fraction): Carbonic anhydrase 3 (CA3): -0.4126 fraction
  Change from GRMD Baseline (fraction): Cardiotrophin-1 (CTF1): -0.0756 fraction
  Change from GRMD Baseline (fraction): Catalase (CAT): -0.1548 fraction
  Change from GRMD Baseline (fraction): Choline/ethanolamine kinase (CHKB): -0.0698 fraction
  Change from GRMD Baseline (fraction): Chymase (CMA1): -0.0479 fraction
  Change from GRMD Baseline (fraction): Clusterin (CLU): -0.1079 fraction
  Change from GRMD Baseline (fraction): Complement component C6 (C6): 0.1732 fraction
  Change from GRMD Baseline (fraction): Complement component C8 (C8A C8B C8G): -0.1065 fraction
  Change from GRMD Baseline (fraction): Complement factor D (CFD): -0.1183 fraction
  Change from GRMD Baseline (fraction): Creatine kinase M-type (CKM): -0.3439 fraction
  Change from GRMD Baseline (fraction): Creatine kinase M-type:Creatine kinase B-type heterodimer (CKB CKM): -0.3657 fraction
  Change from GRMD Baseline (fraction): Cyclin-dependent kinase inhibitor 1B (CDKN1B): -0.1686 fraction
  Change from GRMD Baseline (fraction): Cysteine and glycine-rich protein 3 (CSRP3): -0.0108 fraction
  Change from GRMD Baseline (fraction): Cytochrome c (CYCS): -0.561 fraction
  Change from GRMD Baseline (fraction): DNA repair protein RAD51 homolog 1 (RAD51): -0.1205 fraction
  Change from GRMD Baseline (fraction): Desmoglein-1 (DSG1): -0.0821 fraction
  Change from GRMD Baseline (fraction): Dickkopf-like protein 1 (DKKL1): -0.0601 fraction
  Change from GRMD Baseline (fraction): Down syndrome cell adhesion molecule (DSCAM): -0.0864 fraction
  Change from GRMD Baseline (fraction): Dual specificity mitogen-activated protein kinase kinase 1 (MAP2K1): -0.3654 fraction
  Change from GRMD Baseline (fraction): Dual specificity protein phosphatase 3 (DUSP3): -0.3709 fraction
  Change from GRMD Baseline (fraction): Dynein light chain roadblock-type 1 (DYNLRB1): -0.5348 fraction
  Change from GRMD Baseline (fraction): Ectonucleoside triphosphate diphosphohydrolase 1 (ENTPD1): -0.1101 fraction
  Change from GRMD Baseline (fraction): Endothelin-converting enzyme 1 (ECE1): -0.1039 fraction
  Change from GRMD Baseline (fraction): Ephrin type-A receptor 1 (EPHA1): -0.0912 fraction
  Change from GRMD Baseline (fraction): Ephrin type-B receptor 6 (EPHB6): 0.1966 fraction
  Change from GRMD Baseline (fraction): Epidermal growth factor (EGF): -0.0588 fraction
  Change from GRMD Baseline (fraction): Epidermal growth factor receptor variant III (EGFR): -0.052 fraction
  Change from GRMD Baseline (fraction): Erythropoietin receptor (EPOR): -0.0772 fraction
  Change from GRMD Baseline (fraction): Estrogen receptor (ESR1): -0.0792 fraction
  Change from GRMD Baseline (fraction): Eukaryotic translation initiation factor 4H (EIF4H): -0.4334 fraction
  Change from GRMD Baseline (fraction): Eukaryotic translation initiation factor 4 gamma 2 (EIF4G2): -0.3268 fraction
  Change from GRMD Baseline (fraction): Extracellular matrix protein 1 (ECM1): -0.1471 fraction
  Change from GRMD Baseline (fraction): Fibroblast growth factor 8 isoform B (FGF8): -0.0878 fraction
  Change from GRMD Baseline (fraction): Fibroblast growth factor 9 (FGF9): -0.0286 fraction
